Measured values published in ChEMBL document CHEMBL3430912, “GSK Tres Cantos Anti-Kinetoplastid Screening (TCAKS) Data”.

Columns and labels:
Trypanosoma cruzi [1] = assay: GSK_TCAKS: pIC50 Trypanosoma cruzi Imaging: Amastigotes/Cell. […] Cells were then washed once with PBS before infection. T. cruzi trypomastigotes, collected at days 5 to 8 after infection from LLC-MK2 parasite infected cultures, were allowed to swim out for 4h at 37C from a centrifuged pellet (2,500 rpm/10 min/room temperature). Trypomastigotes were then collected and counted in a CASY Cell Counter. Trypomastigotes, in supplemented DMEM, were added to H9c2 cultures in a multiplicity of infection of 1 and incubated for 18 h. Cells were washed once with PBS before incubation of the infected H9c2 monolayer with trypsin (Life-Technologies) to detach cells from the flask. Cells were counted in a CASY Cell Counter using a 150 um capillary and their density set at 5 * 10^4 cells per mL in supplemented assay DMEM. Infected H9c2 were dispensed into 384-well poly-lysine coated assay plates at 50uL per well using a Multidrop Combi dispenser. After seeding them, the plates were incubated at 37C, 5% CO2 for 72h. Cultures were then fixed and stained by addition of 50 uL of a solution containing 8% formaldehyde and 4 uM DRAQ5 DNA dye (BioStatus, UK) per well. […] Five images were collected per well for reliable statistical analysis. Automated image analysis was performed with a script developed on Acapella High Content Imaging and Analysis Software (PerkinElmer). Output: number of amastigotes per cell as infection level measurement.; type: functional, organism-based, Rattus norvegicus; conditions: H9c2, 4 h
[2] = tested on: Trypanosoma brucei brucei; assay: GSK_TCAKS: pIC50 Trypanosoma brucei viability assay using fluorescence intensity. Assay plates (1536-well) were prepared by dispensing 25nL of compound solution per well using an Echo acoustic dispenser (Labcyte).; type: functional, organism-based; conditions: Lister 427, 2 h
Trypanosoma cruzi [3] = assay: (§1) GSK_TCAKS: pIC50 Trypanosoma cruzi Imaging: Infected Cells. […] Cells were then washed once with PBS before infection. T. cruzi trypomastigotes, collected at days 5 to 8 after infection from LLC-MK2 parasite infected cultures, were allowed to swim out for 4h at 37C from a centrifuged pellet (2,500 rpm/10 min/room temperature). Trypomastigotes were then collected and counted in a CASY Cell Counter. Trypomastigotes, in supplemented DMEM, were added to H9c2 cultures in a multiplicity of infection of 1 and incubated for 18 h. Cells were washed once with PBS before incubation of the infected H9c2 monolayer with trypsin (Life-Technologies) to detach cells from the flask. Cells were counted in a CASY Cell Counter using a 150 um capillary and their density set at 5 * 10^4 cells per mL in supplemented assay DMEM. Infected H9c2 were dispensed into 384-well poly-lysine coated assay plates at 50uL per well using a Multidrop Combi dispenser. After seeding them, the plates were incubated at 37C, 5% CO2 for 72h. Cultures were then fixed and stained by addition of 50 uL of a solution containing 8% formaldehyde and 4 uM DRAQ5 DNA dye (BioStatus, UK) per well. […] Five images were collected per well for reliable statistical analysis. Automated image analysis was performed with a script developed on Acapella High Content Imaging and Analysis Software (PerkinElmer). Output: percentage of infected cells per well as a second infection marker.; type: functional, organism-based, Rattus norvegicus; conditions: H9c2, 4 h
[4] = GSK_TCAKS: pIC50 HepG2 human cell line viability assay using luminiscence. […] Seeding density was checked to ensure that new mono-layers were not more than 50% confluent at the time of harvesting. Cell suspension was added to 500 mL of the same medium at a final density of 1.2 * 10^5 cells/mL. This cell suspension was dispensed (25 uL, 3000 cells per well) into 384-well clear-bottom plates using a Multidrop Combi dispenser. Prior to addition of the cell suspension, the screening compounds (250 nL) were pre-dispensed into the plates with an Echo liquid handler. Plates were incubated for 48 h at 37C, 5% CO2. After incubation, plates equilibrated at room temperature for 30 min before proceeding to develop the luminescent signal. The signal developer, CellTiter-Glo Reagent, was allowed to equilibrate at room temperature for 30 min and added to the plates (25uL per well) using a Multidrop Combi dispenser. Plates were left for 10 min at room temperature for stabilization and then read using a ViewLux.; type: toxicity, cell-based
Trypanosoma cruzi [5] = assay: as §1, with “H2C9” for “Trypanosoma cruzi”, “H9c2 Host Cardiomyocytes.” for “Infected Cells.”, “Number” for “percentage”, “H9c2 Host Cardiomyocytes nuclei to determine drug-related cytotoxicity.” for “infected cells per well as a second infection marker.”; type: functional, organism-based, Rattus norvegicus; conditions: H9c2, 4 h
[6] = biological target: Sterol 14-alpha demethylase (Trypanosoma cruzi (strain CL Brener), UniProt Q7Z1V1); assay: GSK_TCAKS: pIC50 CYP51 from Trypanosoma cruzi.; type: functional
Leishmania donovani [7] = assay: (§2) GSK_TCAKS: pIC50 Leishmania donovani Imaging: THP-1 Host Macrophages. Assay plates (384-well) were prepared by adding 250nL of compound to each well. For single shot assay, the final compound concentration was 5 uM. […] Automated image analysis was performed with a script developed on Acapella High Content Imaging and Analysis Software (PerkinElmer). Output: THP-1 cell count were reported for each well.; type: functional, organism-based, Homo sapiens
Leishmania donovani [8] = assay: as §2, with “Amastigotes/Macrophages.” for “THP-1 Host Macrophages.”, “Average number of amastigotes per macrophage” for “THP-1”, “cell” for “cell count”; type: functional, organism-based, Homo sapiens; conditions: THP-1
Leishmania donovani [9] = assay: GSK_TCAKS: pIC50 Leishmania donovani viability assay using fluorescence intensity. Assay plates (1536-well) were prepared by adding 30nL per well of compound. For single shot assay, the final compound concentration was 5uM. […] Briefly, eGFP LdBOB axenic amastigotes were harvested, fixed and counted in a CASY cell counter (Roche-Applied Science). A final concentration of 1.5 * 10^5 cells per well were prepared in amastigote media containing 500 U/mL penicillin/streptomycin (Invitrogen) and 6uL was dispensed to each experimental well using a Multidrop Combi dispenser (Thermo Scientific). 6uL of assay media was dispensed to control columns used as reference for 100% compound response. Following incubation for 72 h at 37C, 5% CO2, 2 uL of resazurin was added to each well at a final concentration of 0.5 mM in phosphate buffered saline (PBS) with IGEPAL (Sigma-Aldrich), 0.05% (v/v).; type: functional, organism-based
[10] = tested on: Trypanosoma brucei brucei; assay: GSK_TCAKS: pIC50 Trypanosoma brucei viability assay using luminiscence. Assay plates (1536-well) were prepared. T. brucei cultures were harvested and counted in a CASY cell counter. A parasite suspension was prepared at a final concentration of 5 * 10^4 cells/mL in complete HMI9 medium and 6uL was dispensed to all wells containing compounds using a Multidrop Combi dispenser. 6uL of HMI9 media with 0.4% DMSO were dispensed to control columns. Plates were incubated for 24 h at 37C, 5% CO2 then tempered for 10 min at room temperature. ATP content was quantified by adding 4 uL of CellTiter-Glo Reagent (Promega) according to the manufacturer's instructions. Luminescence was measured using a ViewLux.; type: functional, organism-based; conditions: Lister 427, CASY
Trypanosoma cruzi [11] = assay: GSK_TCAKS: pIC50 Trypanosoma cruzi viability assay using beta-GAL activity. This assay was run at single shot at 5uM compound concentration per well. The biological reagents consisted of NIH-3T3 host cells and trypomastigotes parasitic cells; both cell types were set to a 3.3 * 10^5 cells/mL dilution in assay DMEM by means of a CASY cell counter device using a 60um capillary. 6 uL of the mixture were dispensed per well (about 1 * 10^3 host-cells and 1 * 10^3 parasites) with a Multidrop Combi dispenser. […] In all wells, the percentage of DMSO never exceeded 0.5%. Plates incubated for four days at 37C, 5% CO2. The substrate used for the assay fluorescence intensity (FLINT) readout was resorufin-beta-D-galactopiranoside (Sigma-Aldrich) at 5uM per well. It was diluted in PBS supplemented with the soft detergent Igepal (Fluka).; type: functional, organism-based, Mus musculus; conditions: Tulahuen, NIH3T3
Leishmania donovani [12] = assay: as §2, with “Infected” for “THP-1 Host”, “Percent of infected macrophage cells” for “THP-1 cell count”; type: functional, organism-based, Homo sapiens; conditions: THP-1

Sterol 14-alpha demethylase, sequence (Q7Z1V1 whole entry): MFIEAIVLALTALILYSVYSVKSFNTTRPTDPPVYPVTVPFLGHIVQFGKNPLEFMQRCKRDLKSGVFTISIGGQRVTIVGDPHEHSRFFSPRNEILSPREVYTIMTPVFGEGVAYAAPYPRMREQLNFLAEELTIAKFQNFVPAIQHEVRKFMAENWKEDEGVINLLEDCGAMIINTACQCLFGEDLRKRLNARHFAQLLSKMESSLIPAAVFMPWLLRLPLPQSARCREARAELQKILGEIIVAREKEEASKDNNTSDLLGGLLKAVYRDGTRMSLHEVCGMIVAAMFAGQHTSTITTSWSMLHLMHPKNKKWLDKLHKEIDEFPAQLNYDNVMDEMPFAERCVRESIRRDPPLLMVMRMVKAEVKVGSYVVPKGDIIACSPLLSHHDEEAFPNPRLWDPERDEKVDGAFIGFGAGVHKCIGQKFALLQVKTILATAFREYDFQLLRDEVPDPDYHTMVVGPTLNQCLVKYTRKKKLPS

| SMILES | IC50 (Trypanosoma cruzi [1]) [µM] | IC50 [2] [µM] | IC50 (Trypanosoma cruzi [3]) [µM] | IC50 at 48 h [4] [µM] | IC50 (Trypanosoma cruzi [5]) [µM] | IC50 [6] [µM] | IC50 (Leishmania donovani [7]) [µM] | IC50 (Leishmania donovani [8]) [µM] | IC50 (Leishmania donovani [9]) [µM] | IC50 [10] [µM] | IC50 (Trypanosoma cruzi [11]) [µM] | IC50 (Leishmania donovani [12]) [µM] |
| --- | --- | --- | --- | --- | --- | --- | --- | --- | --- | --- | --- | --- |
| COc1ccc(C2=NCC(CSc3nnc(-c4ccc5c(c4)OCO5)o3)S2)cc1 (stereo not drawn) | 0.316 | 10 | 0.501 | > 100 | > 50.1 | 10 | > 50.1 | 0.398 | 1 | > 39.8 | 2.51 | 1 |
| O=C(NC1CCN(C2Cc3ccc(NS(=O)(=O)c4cc(F)cc(F)c4)cc3C2)CC1)C1CC1 (stereo not drawn) | > 50.1 | 1 | > 50.1 | > 100 | > 50.1 | 50.1 | 12.6 | 12.6 | 25.1 | 0.794 | > 50.1 | > 50.1 |
| COc1cccc(C(=O)[C@H]2C[C@@H]2CN(Cc2ccccn2)Cc2ccccn2)c1 | 0.794 | 15.8 | 1.26 | > 100 | 20 | 31.6 | > 50.1 | 1.58 | 7.94 | 20 | 1.26 | 2 |
| O=C(CC1(O)C(=O)N(Cc2ccccc2)c2ccc(Br)cc21)c1cccnc1 (stereo not drawn) | 20 | 0.631 | 25.1 | 63.1 | 3.16 | 3.98 | 39.8 | 31.6 | > 50.1 | 0.794 | 5.01 | > 50.1 |
| O=C(Nc1ccc(-c2nc3ccccc3c(=O)[nH]2)cc1)c1cccs1 | > 50.1 | 0.251 | > 50.1 | > 100 | > 50.1 | > 100 | > 50.1 | > 50.1 | > 50.1 | 1 | 3.16 | > 50.1 |
| O=C(c1ccc(Cl)cc1)c1ccc(OC(=O)N2CCOCC2)cc1 | 6.31 | 7.94 | > 50.1 | > 100 | > 50.1 | 39.8 | > 50.1 | 2 | 6.31 | > 39.8 | 12.6 | 5.01 |
| CCc1cccc(CC)c1-n1c(SCC(=O)NC(=O)NCc2ccco2)nnc1-c1cccnc1 | 7.94 | 0.398 | 12.6 | > 100 | > 50.1 | 1 | > 50.1 | > 50.1 | > 50.1 | 0.794 | 12.6 | > 50.1 |
| C[C@@H](Oc1cc(-n2cnc3ccc(CC(O)CO)cc32)sc1C(N)=O)c1ccccc1Cl (stereo partly drawn) | 12.6 | 0.631 | 50.1 | > 100 | 0.126 | 25.1 | 39.8 | 31.6 | 25.1 | 0.794 | 3.16 | 39.8 |
| O=C(c1ccccc1)N1CCC(C(=O)N2CCC(Oc3ccccc3Cl)CC2)CC1 | 25.1 | 0.501 | 31.6 | > 100 | > 50.1 | 20 | > 50.1 | 31.6 | > 50.1 | 1 | 2 | > 50.1 |
